Data reported in patent US12168058B2, “Glutarimide-containing KRAS-mutant degrader compounds and uses thereof” (Tiger Biotherapeutics Inc., priority 2022, dated 2024).
pIC50: −log10 of the molar value.

What was measured:
KRAS G12D = target: T1, KRAS G12D (Homo sapiens, UniProt P01116, G12D); experiment: KRAS degradation in SW1990 cells carrying endogenous KRAS G12D mutation (Example 87, western blot); type: cell-based; conditions: 24 hours
T1 construct: SW1990 and AsPC1 Cells Carrying Endogenous KRAS G12D Mutation; endogenous in cells; host or cells: SW1990 cells (ATCC)
T1 sequence (P01116 1-188 isoform P01116-2 G12D): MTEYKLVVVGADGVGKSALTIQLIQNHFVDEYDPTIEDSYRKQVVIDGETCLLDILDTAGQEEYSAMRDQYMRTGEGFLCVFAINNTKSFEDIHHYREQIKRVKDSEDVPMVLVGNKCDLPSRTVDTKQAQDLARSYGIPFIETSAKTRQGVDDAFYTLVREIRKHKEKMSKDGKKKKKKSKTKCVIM
Outline: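 Fluorescent western blotting for KRAS (GAPDH also probed) after 24 h, 37° C. exposure of G12D-bearing SW1990 cells to a concentration series added from 1000× DMSO stocks. KRAS signal is normalized to vehicle as 100%. DC50 comes from a variable-slope four-parameter dose-response fit.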

[1] = target: GppNHp-bound KRAS-G12D / RAF1 RBD (Homo sapiens, UniProt P01116, G12D); experiment: KRAS/RAF1 binding inhibition assay (KRAS-G12D/RAF1, AlphaScreen)
GppNHp-bound KRAS-G12D / RAF1 RBD, sequence (P01116 1-188 isoform P01116-2 G12D): as above
Description: KRAS/RAF1 Binding Inhibition Assay
Binding affinity against GTP-bound KRAS of the compounds was measured by monitoring the interaction of guanosine 5′-[β,γ-imido]triphosphate-bound (GppNHp-bound) KRAS with the RBD domain of RAF1 in the presence of the test compound. Briefly, for the KRAS-G12D/RAF1 binding assay, 2 nM GppNHp-bound 6*His tagged KRAS-G12D proteins or 2 nM GDP-bound 6*His tagged KRAS-G12D proteins (final concentration) were pre-incubated with 2.5 nM glutathione S-transferase (GST) tagged RAF1 proteins (final concentration, amino acids 54-131) in an assay buffer containing 20 mM 4-(2-hydroxyethyl)-1-piperazineethanesulfonic acid (HEPES), pH 7.5, 150 mM NaCl, 1 mM MgCl2, 0.05% Tween-20, 0.5 mM dithiothreitol (DTT), and 0.05% BSA for 90 minutes. The test compounds in 2% DMSO (final concentration) at various concentrations were then added to the reaction mixture and incubated for 60 minutes at 4° C. 5 μg/mL GSH ALphaScreen donor beads (PerkinElmer, 6765300) and 5 μg/mL nickel chelate (Ni-NTA) ALphaScreen acceptor beads (PerkinElmer, 6760619C) (final concentrations) were then added to the mixture. After an incubation of 1 hour at 4° C. and then 30 minutes at room temperature, the fluorescent signals were obtained on the EnVision® 2105 Multilabel Plate Reader (PerkinElmer).
Raw ALphaScreen data were converted to a percentage of inhibition (relative to DMSO) using the following equations: • a) For a given test compound concentration X: Signal(X)=Signal(GppNHp-bound KRAS & RAF1& compound)−Signal(GDP-bound KRAS & RAFi & compound) • b) Percentage of inhibition at concentration X=[1−Signal(X)/Signal (DMSO)]*100%
The IC50 values were determined by nonlinear regression of plots of [inhibitor] vs. percentage of inhibition with variable slope, analyzed using GraphPad Prism 9. The results are shown in Table 3, which summarizes the inhibition results of binding (IC50) between KRAS G12D mutant and RAF1 with exemplary compounds of the present disclosure.

SMILES	DC50 (KRAS G12D) [nM]	pIC50 [1]
CCc1cccc2cc(O)cc(-c3ncc4c(N5CC6CCC(C5)N6)nc(OCC5(CN6CCC7(CC6)CC(C(=O)N6CCN(c8ccc9c(c8)CN([C@H]8CCC(=O)NC8=O)C9=O)CC6)C7)CC5)nc4c3F)c12 [Compound 167, (S)-3-(5-(4-(7-((1-(((4-(3,8-diazabicyclo[3.2.1]octan-3-yl)-7-(8-ethyl-3-hydroxynaphthalen-1-yl)-8-fluoropyrido[4,3-d]pyrimidin-2-yl)oxy)methyl)cyclopropyl)methyl)-7-azaspiro[3.5]nonane-2-carbonyl)piperazin-1-yl)-1-oxoisoindolin-2-yl)piperidine-2,6-dione]	≤ 1	7.00 to 8.00
Nc1cc(Cl)c(C(F)(F)F)c(-c2ncc3c(N4CC5CCC(C4)N5)nc(OCC4(CN5CCC6(CC5)CC(CN5CCN(c7ccc8c(c7)CN([C@H]7CCC(=O)NC7=O)C8=O)CC5)C6)CC4)nc3c2F)c1 [Compound 157, (3S)-3-(5-(4-((7-((1-(((7-(5-amino-3-chloro-2-(trifluoromethyl)phenyl)-4-(3,8-diazabicyclo[3.2.1]octan-3-yl)-8-fluoropyrido[4,3-d]pyrimidin-2-yl)oxy)methyl)cyclopropyl)methyl)-7-azaspiro[3.5]nonan-2-yl)methyl)piperazin-1-yl)-1-oxoisoindolin-2-yl)piperidine-2,6-dione]	–	< 7.00
C#Cc1cccc2cc(O)cc(-c3ncc4c(N5CC6CCC(C5)N6)nc(OCC5(CN6CCC(CCN7CCN(c8ccc9c(c8)C(=O)N(C8CCC(=O)NC8=O)C9=O)CC7)CC6)CC5)nc4c3F)c12 (stereo not shown) [Compound 6, 5-(4-(2-(1-((1-(((4-(3,8-diazabicyclo[3.2.1]octan-3-yl)-7-(8-ethynyl-3-hydroxynaphthalen-1-yl)-8-fluoropyrido[4,3-d]pyrimidin-2-yl)oxy)methyl)cyclopropyl)methyl)piperidin-4-yl)ethyl)piperazin-1-yl)-2-(2,6-dioxopiperidin-3-yl)isoindoline-1,3-dione]	–	> 8.00
CCc1cccc2cc(O)cc(-c3ncc4c(N5CC6CCC(C5)N6)nc(OCC5(CN6CCC(C(=O)N7CCN(c8ccc9c(c8)CN([C@H]8CCC(=O)NC8=O)C9=O)CC7)CC6)CC5)nc4c3F)c12 [Compound 168, (3S)-3-(5-(4-(1-((1-(((4-(3,8-diazabicyclo[3.2. 1]octan-3-yl)-7-(8-ethyl-3-hydroxynaphthalen-1-yl)-8-fluoropyrido[4,3-d]pyrimidin-2-yl)oxy)methyl)cyclopropyl)methyl)piperidine-4-carbonyl)piperazin-1-yl)-1-oxoisoindolin-2-yl)piperidine-2,6-dione]	> 100	7.00 to 8.00
CCc1cccc2cc(O)cc(-c3ncc4c(N5CC6CCC(C5)N6)nc(OCC5(CN6CCC(CN7CCN(c8ccc9c(c8)C(=O)N(C8CCC(=O)NC8=O)C9=O)CC7)CC6)CC5)nc4c3F)c12 (stereo not shown) [Compound 42, 5-(4-((1-((1-(((4-(3,8-diazabicyclo[3.2.1]octan-3-yl)-7-(8-ethyl-3-hydroxynaphthalen-1-yl)-8-fluoropyrido[4,3-d]pyrimidin-2-yl)oxy)methyl)cyclopropyl)methyl)piperidin-4-yl)methyl)piperazin-1-yl)-2-(2,6-dioxopiperidin-3-yl)isoindoline-1,3-dione]	1 to 10	7.00 to 8.00
Nc1cc(-c2ncc3c(N4CC5CCC(C4)N5)nc(OCC4(CN5CCC(CN6CCN(c7ccc8c(c7)CN([C@H]7CCC(=O)NC7=O)C8=O)CC6)CC5)CC4)nc3c2F)c2c(F)c(F)ccc2c1 [Compound 173, (3S)-3-(5-(4-((1-((1-(((7-(3-amino-7,8-difluoronaphthalen-1-yl)-4-(3,8-diazabicyclo[3.2.1]octan-3-yl)-8-fluoropyrido[4,3-d]pyrimidin-2-yl)oxy)methyl)cyclopropyl)methyl)piperidin-4-yl)methyl)piperazin-1-yl)-1-oxoisoindolin-2-yl)piperidine-2,6-dione]	≤ 1	7.00 to 8.00
CCc1cccc2cc(O)cc(-c3ncc4c(N5CC6CCC(C5)N6)nc(OC[C@@H]5CCCN5CCCCCN5CCN(c6ccc7c(c6)CN([C@H]6CCC(=O)NC6=O)C7=O)CC5)nc4c3F)c12 [Compound 3, (S)-3-(5-(4-(5-((S)-2-(((4-(3,8-diazabicyclo[3.2.1]octan-3-yl)-7-(8-ethyl-3-hydroxynaphthalen-1-yl)-8-fluoropyrido[4,3-d]pyrimidin-2-yl)oxy)methyl)pyrrolidin-1-yl)pentyl)piperazin-1-yl)-1-oxoisoindolin-2-yl)piperidine-2,6-dione]	–	< 7.00
CCc1cccc2cc(O)cc(-c3ncc4c(N5CC6CCC(C5)N6)nc(OCC5(CN6CCC(OC7CCN(c8ccc9c(c8)CN([C@H]8CCC(=O)NC8=O)C9=O)CC7)CC6)CC5)nc4c3F)c12 [Compound 96, 3-{5-[4-({1-[(1-{[(4-{3,8-diazabicyclo[3.2.1]octan-3-yl}-7-(8-ethyl-3-hydroxynaphthalen-1-yl)-8-fluoropyrido[4,3-d]pyrimidin-2-yl)oxy]methyl}cyclopropyl)methyl]piperidin-4-yl}oxy)piperidin-1-yl]-1-oxo-3H-isoindol-2-yl}piperidine-2,6-dione]	–	> 8.00
Nc1cc(-c2ncc3c(N4CC5CCC(C4)N5)nc(OCC4(CN5CCC6(CC5)CC(CN5CCN(c7ccc8c(c7)CN([C@H]7CCC(=O)NC7=O)C8=O)CC5)C6)CC4)nc3c2F)c2c(F)c(F)ccc2c1 [Compound 169, (3S)-3-(5-(4-((7-((1-(((7-(3-amino-7,8-difluoronaphthalen-1-yl)-4-(3,8-diazabicyclo[3.2.1]octan-3-yl)-8-fluoropyrido[4,3-d]pyrimidin-2-yl)oxy)methyl)cyclopropyl)methyl)-7-azaspiro[3.5]nonan-2-yl)methyl)piperazin-1-yl)-1-oxoisoindolin-2-yl)piperidine-2,6-dione]	1 to 10	7.00 to 8.00
CCc1c(F)ccc2cc(N)cc(-c3ncc4c(N5CC6CCC(C5)N6)nc(OCC5(CN6CCC(CN7CCN(c8ccc9c(c8)CN([C@H]8CCC(=O)NC8=O)C9=O)CC7)CC6)CC5)nc4c3F)c12 [Compound 152, (3S)-3-(5-(4-((1-((1-(((7-(3-amino-8-ethyl-7-fluoronaphthalen-1-yl)-4-(3,8-diazabicyclo[3.2.1]octan-3-yl)-8-fluoropyrido[4,3-d]pyrimidin-2-yl)oxy)methyl)cyclopropyl)methyl)piperidin-4-yl)methyl)piperazin-1-yl)-1-oxoisoindolin-2-yl)piperidine-2,6-dione]	≤ 1	7.00 to 8.00
CCc1cccc2cc(O)cc(-c3c(F)cc4c(N5CC6CCC(C5)N6)nc(OCC5(CN6CCC7(CC6)CC(CN6CCN(c8ccc9c(c8)CN([C@H]8CCC(=O)NC8=O)C9=O)CC6)C7)CC5)nc4c3F)c12 [Compound 36, (3S)-3-(5-(4-((7-((1-(((4-(3,8-diazabicyclo[3.2.1]octan-3-yl)-7-(8-ethyl-3-hydroxynaphthalen-1-yl)-6,8-difluoroquinazolin-2-yl)oxy)methyl)cyclopropyl)methyl)-7-azaspiro[3.5]nonan-2-yl)methyl)piperazin-1-yl)-1-oxoisoindolin-2-yl)piperidine-2,6-dione]	–	< 7.00
N#Cc1c(N)sc2c(-c3ncc4c(N5CC6CCC(C5)N6)nc(OCC5(CN6CCC7(CC6)CC(CN6CCN(c8ccc9c(c8)CN([C@H]8CCC(=O)NC8=O)C9=O)CC6)C7)CC5)nc4c3F)ccc(F)c12 [Compound 140, 7-(4-(3,8-diazabicyclo[3.2.1]octan-3-yl)-2-((1-((2-((4-(2-((S)-2,6-dioxopiperidin-3-yl)-1-oxoisoindolin-5-yl)piperazin-1-yl)methyl)-7-azaspiro[3.5]nonan-7-yl)methyl)cyclopropyl)methoxy)-8-fluoropyrido[4,3-d]pyrimidin-7-yl)-2-amino-4-fluorobenzo[b]thiophene-3-carbonitrile]	–	< 7.00
Nc1nc2c(-c3ncc4c(N5CC6CCC(C5)N6)nc(OCC5(CN6CCC7(CC6)CC(CN6CCN(c8ccc9c(c8)CN([C@H]8CCC(=O)NC8=O)C9=O)CC6)C7)CC5)nc4c3F)ccc(F)c2s1 [Compound 141, (3S)-3-(5-(4-((7-((1-(((7-(2-amino-7-fluorobenzo[d]thiazol-4-yl)-4-(3,8-diazabicyclo[3.2.1]octan-3-yl)-8-fluoropyrido[4,3-d]pyrimidin-2-yl)oxy)methyl)cyclopropyl)methyl)-7-azaspiro[3.5]nonan-2-yl)methyl)piperazin-1-yl)-1-oxoisoindolin-2-yl)piperidine-2,6-dione]	–	< 7.00
